# Test system: S-100b
# Assay: Serum S-100b levels in patients with severe contusive-type head trauma treated by constant infusion
# Type: in vivo, human
# Conditions: constant infusion for 72 hours, serum samples out to 120 hours post-infusion, luminometric immunoassay
# From the text: Levels of S-100b can be measured in a biological sample of a patient's blood or CSF using a commercially available immunoradiometric assay or luminometric immunoassay kit such as those available from Byk-Sangtec Diagnostica GmbH & Co. (Dietzenbach, Germany), which are based on a two-site immunoluminometric sandwich assay using the commercially available LIAISON® Sangtec® S-100 assay system. In this assay system, paramagnetic particles are coated with two anti-S100b monoclonal antibodies directed to different epitopes, and a secondary anti-S100b monoclonal antibody labeled with an isoluminol derivative is provided as detection antibody. The paramagnetic particles, assay buffer, and biological sample are first incubated and unbound material is removed by a wash cycle. […] Subsequently, starter reagents that activate the chemoluminscent reaction are added and the S-100b concentration is determined via the chemiluminescence reaction induced by the previously added reagents. The light signal is measured in relative light units (RLUs) and is directly proportional to the amount of S-100b protein in the sample. […]
# S-100b levels were measured in the serum of patients suffering from severe contusive-type head trauma. […] S-100b levels were determined using a commercially available luminometric immunoassay kit from Byk-Sangtec Diagnostica GmbH & Co. (Dietzenbach, Germany).
smiles,measurement,value
"C[C@@H]([C@@H](O)c1ccc(O)cc1)N1CCC(O)(c2ccccc2)CC1 [CP-101,606, (1S,2S)-1-(4-hydroxyphenyl)-2-(4-hydroxy-4-phenylpiperidin-1-yl)-1-propanol]",S-100b levels in serum compared to the placebo group,significantly reduced
